Activity calls are given as the source filed them. No cut-off for these calls is given here.
Columns and labels:
Candida albicans [1] = experiment: Fungistatic activity against Candida albicans CA5 at sub-MIC measured after 12 hrs by time-kill dependence-based spectrophotometric analysis; format: functional, organism-based
Candida albicans [2] = experiment: Induction of membrane damage in Candida albicans CA5 at MIC measured after 2 hrs by concavaline-FITC/PI/DAPI-staining based fluorescence microscopic analysis relative to DMSO control; format: functional
[3] = Induction of membrane damage in PC/PS liposome assessed as calcein release at MIC after 30 mins by fluorescence-based liposome leakage assay; format: functional
Danio rerio [4] = species: Danio rerio; experiment: Toxicity against zebrafish embryo assessed as effect on tail tip at 50 ug/ml measured at 96 hrs post fertilization by inverted microscopic analysis; format: organism-based; conditions: in vivo
[5] = Hemolytic effect in sheep RBC assessed as release of hemoglobin at 10 ug/ml after 1 hr; format: ADME, cell-based, Ovis aries, Erythrocyte; conditions: sheep red blood cells, read-out: Activity
Danio rerio [6] = species: Danio rerio; experiment: Toxicity against zebrafish embryo assessed as effect on notochord at 50 ug/ml measured at 96 hrs post fertilization by inverted microscopic analysis; format: organism-based; conditions: in vivo
Danio rerio [7] = species: Danio rerio; experiment: Toxicity against zebrafish embryo assessed as effect on eyes at 50 ug/ml measured at 96 hrs post fertilization by inverted microscopic analysis; format: organism-based; conditions: in vivo
Danio rerio [8] = species: Danio rerio; experiment: Toxicity against zebrafish embryo assessed as effect on otoliths at 50 ug/ml measured at 96 hrs post fertilization by inverted microscopic analysis; format: organism-based; conditions: in vivo
Danio rerio [9] = experiment: Toxicity against zebrafish embryo assessed as pericardial edema at 50 ug/ml measured at 96 hrs post fertilization by inverted microscopic analysis; format: organism-based; conditions: in vivo
Danio rerio [10] = species: Danio rerio; experiment: Toxicity against zebrafish embryo assessed as effect on heart beat at 50 ug/ml measured at 96 hrs post fertilization by inverted microscopic analysis; format: organism-based; conditions: in vivo
Danio rerio [11] = species: Danio rerio; experiment: Toxicity against zebrafish embryo assessed as effect on blood circulation at 50 ug/ml measured at 96 hrs post fertilization by inverted microscopic analysis; format: organism-based; conditions: in vivo
Danio rerio [12] = species: Danio rerio; experiment: Toxicity against zebrafish embryo assessed as head malformation at 50 ug/ml measured at 96 hrs post fertilization by inverted microscopic analysis; format: organism-based; conditions: in vivo
Danio rerio [13] = species: Danio rerio; experiment: Toxicity against zebrafish embryo assessed as skeletal deformities at 50 ug/ml measured at 96 hrs post fertilization by inverted microscopic analysis; format: organism-based; conditions: in vivo
[14] = Selectivity index, ratio of IC50 for human MRC5 cell to MIC for Candida albicans ATCC 10231
Candida albicans [15] = experiment: Induction of cell death in Candida albicans CA5 at MIC measured after 2 hrs by concavaline-FITC/PI/DAPI-staining based fluorescence microscopic analysis relative to DMSO control; format: functional

## Cl.Cl.N=C(N)N/N=C/c1ccc(-c2ccc(/C=N/NC(=N)N)s2)cc1
Candida albicans [1]
  Activity: Active
Candida albicans [2]
  Activity: 20%
[3]
  Activity: 8%
Danio rerio [4]
  Activity: 0%
[5]
  hemolysis at 1 h, 10 ug/ml: 20%
Danio rerio [6]
  Activity: 0%
Danio rerio [7]
  Activity: 0%
Danio rerio [8]
  Activity: 0%
Danio rerio [9]
  Activity: 0%
Danio rerio [10]
  Activity: 0%
Danio rerio [11]
  Activity: 0%
Danio rerio [12]
  Activity: 0%
Danio rerio [13]
  Activity: 0%

## Cc1ccc(-c2ccc(/C=N/NC(=N)N)s2)cc1.Cl
[14]
  Selectivity Index: 2.7
Candida albicans [15]
  Activity: inactive
